Assay results as given in paper PMC10914731, “Homo-BacPROTAC-induced degradation of ClpC1 as a strategy against drug-resistant mycobacteria” (Nature Communications, 2024).
Values joined by “and” are separate entries in the source; they are usually repeats but may differ in a detail not shown here. Equal values may be shown once. Read-outs that look alike come from different tables or passages of the source. *1 amine or outer side, *2 acyl side, *3 side chain or, on linkers, in order; H or OH if unused. Where a SMILES comes first, the peptide text is derived from it. [ ]: non-standard residue; d: D form. X1 = C#CCn1cc(C[C@H](N[*:1])C(=O)[*:2])c2ccccc21; NMeLeu(5-OH,4R) = CN[C@@H](C[C@@H](C)CO)C(=O)O; Phe(βR-OMe) = CO[C@H](c1ccccc1)[C@H](N)C(=O)O; Trp(1-Me) = Cn1cc(C[C@H](N)C(=O)O)c2ccccc21; NMeL = CN[C@@H](CC(C)C)C(=O)O; Pra = C#CC[C@H](N)C(=O)O

Legend:
[1] = type: in vitro ADME, Rat
Summary of the method: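 Steps: incubate compound at 1 µmol/l with liver microsomes (0.5 mg/ml) plus 1 mM NADPH in pH 7.5 Tris-HCl buffer containing MgCl2 at 37 °C; stop aliquots over time with acetonitrile; centrifuge and measure remaining compound by LC-MS/MS; fit first-order decay and convert half-life to %Qh.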

[2] = type: in vitro ADME, Human
[3] = tested on: Mtb Beijing lineage HN878; type: cell-based, Mycobacterium tuberculosis
[4] = molecular target: T1, full-length ClpC1 (Mycolicibacterium smegmatis, UniProt A0R574); assay: Cell-free degradation of full-length ClpC1 (WES, SDS-PAGE); type: biochemical, M. smegmatis; details: WES / SYPRO Ruby SDS-PAGE, result in words
T1 construct: We also analyzed whether full-length ClpC1 would be degraded in this assay; made in house
T1 sequence (A0R574 whole entry): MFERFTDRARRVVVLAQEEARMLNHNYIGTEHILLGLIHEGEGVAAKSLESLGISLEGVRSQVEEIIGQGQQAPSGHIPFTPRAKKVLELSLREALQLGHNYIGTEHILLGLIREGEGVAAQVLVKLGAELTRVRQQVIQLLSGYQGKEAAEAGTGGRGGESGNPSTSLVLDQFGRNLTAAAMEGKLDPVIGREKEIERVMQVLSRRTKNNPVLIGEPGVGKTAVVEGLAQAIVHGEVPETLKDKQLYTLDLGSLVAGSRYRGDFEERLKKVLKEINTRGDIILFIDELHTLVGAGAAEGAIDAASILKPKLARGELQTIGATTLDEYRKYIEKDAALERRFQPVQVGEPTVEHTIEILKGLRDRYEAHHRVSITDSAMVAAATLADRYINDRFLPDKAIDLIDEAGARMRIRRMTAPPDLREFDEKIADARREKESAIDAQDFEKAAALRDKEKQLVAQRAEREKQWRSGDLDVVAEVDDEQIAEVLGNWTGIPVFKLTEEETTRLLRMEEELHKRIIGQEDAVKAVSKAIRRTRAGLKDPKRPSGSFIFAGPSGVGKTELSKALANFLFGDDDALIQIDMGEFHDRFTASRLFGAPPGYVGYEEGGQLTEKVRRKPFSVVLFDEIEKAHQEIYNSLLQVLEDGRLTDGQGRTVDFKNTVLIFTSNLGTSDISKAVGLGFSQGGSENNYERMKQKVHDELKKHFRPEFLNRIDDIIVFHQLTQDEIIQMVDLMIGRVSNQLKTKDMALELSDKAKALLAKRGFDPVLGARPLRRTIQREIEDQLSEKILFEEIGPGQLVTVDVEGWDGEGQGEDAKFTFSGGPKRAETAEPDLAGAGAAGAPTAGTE
Excerpt: We also analyzed whether full-length ClpC1 would be degraded in this assay, by analyzing the stability of the full-length form monitored by a ClpC1-N-terminal antibody in the WES assays, or directly by SYPRO^TM Ruby stained SDS-PAGE gels in the presence or absence of ClpC1-NTD as additional substrate. The Homo-BacPROTACs tested induced no or only minor degradation of the full-length ClpC1 under these in vitro conditions (Fig. 4e). Whether this is due to hexamer formation stabilizing ClpC1 protomers or missing cofactor(s) of the protease complex, is currently unclear. Likewise, the exact sequential and structural features of native substrates targeted by ClpC1 are not known, except that partially disordered peptide segments can promote degradation.
For SDS-PAGE experiments, reaction samples were treated with 2.7 µl 4x Roti Load 1 (Roth #K929.1), instead of adding sample buffer and fluorescent mastermix, and incubated at 95 °C for 5 min. […] The PageRuler Prestained Protein Ladder (Thermo Scientific #26616) was used as a marker. […]

[5] = molecular target: ClpC1 NTD, M. smegmatis ClpC1P1P2 complex (UniProt A0R574+P9WPC9); type: biochemical; details: for ClpC1 NTD peak area: replicates 1 and 2; for % Response: two replicates
Sequence of ClpC1 NTD, M. smegmatis ClpC1P1P2 complex (P9WPC9 1-156, looked up, natural form): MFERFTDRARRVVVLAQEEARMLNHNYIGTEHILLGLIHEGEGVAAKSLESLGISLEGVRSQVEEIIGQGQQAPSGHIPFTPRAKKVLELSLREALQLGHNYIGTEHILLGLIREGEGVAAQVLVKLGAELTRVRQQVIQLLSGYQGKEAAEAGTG
Sequence of ClpC1 NTD, M. smegmatis ClpC1P1P2 complex (A0R574 whole entry): as the sequence (A0R574 whole entry) above

[6] = tested on: Mtb H37Rv; details: combination with bedaquiline; cited from earlier work

Which “Microsomal Stability Rat QH” value ([1]; Rat) does the source give for `COC(c1ccccc1)C1NC(=O)C(C)NC(=O)C(CC(C)CO)N(C)C(=O)C(Cc2cn(Cc3cn(CCOCCOCCOCCOCCn4cc(Cn5cc(CC6NC(=O)C(C(C)C)NC(=O)C(CC(C)C)N(C)C(=O)C(C(C)C)NC(=O)C(C(OC)c7ccccc7)NC(=O)C(C)NC(=O)C(CC(C)CO)N(C)C6=O)c6ccccc65)nn4)nn3)c3ccccc23)NC(=O)C(C(C)C)NC(=O)C(CC(C)C)N(C)C(=O)C(C(C)C)NC1=O` (centres unmarked) [Compound 8] here?
Its value is 43% and 48.3% and 40.9%.

What about the “Microsomal Stability Rat” value ([1]; clearance in microsomes) of the same compound?
The value was 40 %Qh.

And the “Hepatocyte Human” value ([2]; clearance in hepatocytes)?
Its value is 12 %Qh.

What about the “inhibition of bacterial growth, Mtb Beijing strain HN878” value ([3]; compared to the matching monomers, result in words) of the same compound?
Its value is “more efficient inhibition of bacterial”.

What about the “degradation of full-length ClpC1” value [4] of the same compound?
The value was “not significantly degraded”.

And the “ClpC1 NTD peak area” value ([5]; 8 µM compound, time 0 min)?
The value was 331639 and 301583.

What about the “% Response” value ([5]; 8 µM compound, time 0 min) of the same compound?
Its value is 94.5282% and 100.62%.

And the “ClpC1 NTD peak area” value ([5]; 8 µM compound, time 45 min)?
Its value is 314553 and 280109.

What about the “% Response” value ([5]; 8 µM compound, time 45 min) of the same compound?
Its value is 83.982% and 77.683%.

And the “ClpC1 NTD peak area” value ([5]; 8 µM compound, time 90 min)?
Its value is 285641 and 244656.

What about the “% Response” value ([5]; 8 µM compound, time 90 min) of the same compound?
The value was 56.6216% and 52.7782%.

What about the “ClpC1 NTD peak area” value ([5]; 8 µM compound, time 150 min) of the same compound?
Its value is 191892.

And the “% Response” value ([5]; 8 µM compound, time 150 min)?
Its value is 43.2573%.

And the “ClpC1 NTD peak area” value ([5]; 8 µM compound, time 240 min)?
The value was 311145 and 177822.

And the “% Response” value ([5]; 8 µM compound, time 240 min)?
The value was 45.4516% and 26.6563%.

What about the “ClpC1 NTD peak area” value ([5]; 8 µM compound, time 360 min) of the same compound?
Its value is 222125 and 221356.

And the “% Response” value ([5]; 8 µM compound, time 360 min)?
Its value is 26.4436% and 30.03%.

And the “ClpC1 NTD peak area” value ([5]; 33 µM compound, time 0 min)?
Its value is 810154 and 722357.

What about the “% Response” value ([5]; 33 µM compound, time 0 min) of the same compound?
Its value is 102.812% and 94.7011%.

What about the “ClpC1 NTD peak area” value ([5]; 33 µM compound, time 45 min) of the same compound?
Its value is 641074 and 448402.

And the “% Response” value ([5]; 33 µM compound, time 45 min)?
Its value is 59.8432% and 44.7396%.

And the “ClpC1 NTD peak area” value ([5]; 33 µM compound, time 90 min)?
Its value is 173883 and 214990.

And the “% Response” value ([5]; 33 µM compound, time 90 min)?
Its value is 14.8318% and 19.2596%.

What about the “ClpC1 NTD peak area” value ([5]; 33 µM compound, time 150 min) of the same compound?
The value was 175010 and 133678.

What about the “% Response” value ([5]; 33 µM compound, time 150 min) of the same compound?
Its value is 13.2219% and 10.0521%.

And the “ClpC1 NTD peak area” value ([5]; 33 µM compound, time 240 min)?
The value was 91238.1 and 172941.

And the “% Response” value ([5]; 33 µM compound, time 240 min)?
The value was 6.759% and 11.5705%.

And the “ClpC1 NTD peak area” value ([5]; 33 µM compound, time 360 min)?
The value was 204242 and 62562.1.

What about the “% Response” value ([5]; 33 µM compound, time 360 min) of the same compound?
Its value is 8.812% and 3.58%.

Which “Microsomal Stability Rat” value ([1]; rat, microsomes, pH 7.5) does the source give for `COC(c1ccccc1)C1NC(=O)C(C)NC(=O)C(CC(C)CO)N(C)C(=O)C(Cc2cn(C)c3ccccc23)NC(=O)C(Cc2cn(CCCCCn3cc(CC4NC(=O)C(CC(C)C)N(C)C(=O)C(C(C)C)NC(=O)C(C(OC)c5ccccc5)NC(=O)C(C)NC(=O)C(CC(C)CO)N(C)C(=O)C(Cc5cn(C)c6ccccc56)NC4=O)nn3)nn2)NC(=O)C(CC(C)C)N(C)C(=O)C(C(C)C)NC1=O` (centres unmarked) [Compound 12] here?
The value was under 23 %Qh.

What about the “Microsomal Stability Rat QH” value ([1]; rat, microsomes, pH 7.5) of the same compound?
The value was under 23.1%.

What about the “Hepatocyte Human” value ([2]; human, pH 7.4) of the same compound?
Its value is 12 %Qh.

And the “inhibition of bacterial growth, Mtb Beijing strain HN878” value [3]?
The value was “more efficient inhibition of bacterial”.

What about the “effect of bedaquiline on activity against Mtb H37Rv” value [6] of the same compound?
Its value is “no effect”.

For `C#CCn1cc(C[C@@H]2NC(=O)[C@H](C(C)C)NC(=O)[C@H](CC(C)C)N(C)C(=O)[C@H](C(C)C)NC(=O)[C@H]([C@H](OC)c3ccccc3)NC(=O)[C@H](C)NC(=O)[C@H](C[C@@H](C)CO)N(C)C2=O)c2ccccc21` [Compound 5] (cyclo(A[Phe(βR-OMe)]V[NMeL]V[X1][NMeLeu(5-OH,4R)])), which “Microsomal Stability Rat QH” value ([1]; Rat) is on record?
The value was over 87.900%.

What about the “Microsomal Stability Rat” value ([1]; clearance in microsomes) of the same compound?
The value was over 88 %Qh.

What about the “Hepatocyte Human” value ([2]; human, pH 7.4) of the same compound?
The value was 12 %Qh.

And the “Hepatocyte Stability Human QH” value ([2]; human, pH 7.4)?
The value was 12.386%.

Which “Microsomal Stability Rat QH” value ([1]; Rat) does the source give for `C#CC[C@@H]1NC(=O)[C@H](CC(C)C)N(C)C(=O)[C@H](C(C)C)NC(=O)[C@H]([C@H](OC)c2ccccc2)NC(=O)[C@H](C)NC(=O)[C@H](C[C@@H](C)CO)N(C)C(=O)[C@H](Cc2cn(C)c3ccccc23)NC1=O` [Compound 10] (cyclo(A[Phe(βR-OMe)]V[NMeL][Pra][Trp(1-Me)][NMeLeu(5-OH,4R)])) here?
Its value is 84.600%.

What about the “Microsomal Stability Rat” value ([1]; clearance in microsomes) of the same compound?
The value was 85 %Qh.

And the “Hepatocyte Human” value ([2]; clearance in hepatocytes)?
Its value is 12 %Qh.

What does the source list for `CO[C@H](c1ccccc1)[C@@H]1NC(=O)[C@H](C)NC(=O)[C@H](C[C@@H](C)CO)N(C)C(=O)[C@H](Cc2cn(Cc3cn(CCOCCn4cc(Cn5cc(C[C@@H]6NC(=O)[C@H](C(C)C)NC(=O)[C@H](CC(C)C)N(C)C(=O)[C@H](C(C)C)NC(=O)[C@H]([C@H](OC)c7ccccc7)NC(=O)[C@H](C)NC(=O)[C@H](C[C@@H](C)CO)N(C)C6=O)c6ccccc65)nn4)nn3)c3ccccc23)NC(=O)[C@H](C(C)C)NC(=O)[C@H](CC(C)C)N(C)C(=O)[C@H](C(C)C)NC1=O` [Compound 6]?
Microsomal Stability Rat QH ([1]; Rat): <23.100%; Microsomal Stability Rat ([1]; clearance in microsomes): < 23 %Qh; Hepatocyte Human ([2]; clearance in hepatocytes): 12 %Qh
